According to paper PMC12171319, “3‐Oxabicyclo[3.1.1]heptane as an Isostere of meta‐Benzene” (Angewandte Chemie (International Ed. in English), 2025):
Values after ≈ are worked out from the molar mass of the structure shown. Like-named read-outs stand apart in the source and are kept apart here.

How the values were obtained:
[1] = Table S5, 2nd batch
[2] = Metabolic stability in human liver microsomes; assay type: in vitro ADME; details: both sexes, human
Protocol: 9. Metabolic Stability in Human Liver Microsomes
The objective of this study was to determine the metabolic stability of 3 test articles (EN300- […]
in human liver microsomes at five-time points over 40 minutes using HPLC-MS. Metabolic stability is defined as the percentage of parent compound lost over time in the presence of a metabolically active test system.
Potassium phosphate monobasic (Bio-Basic, Canada; Lot #N9016010)
Potassium phosphate dibasic (Bio-Basic, Canada; Lot #MA7100050) […]
Glucose-6-phosphate dehydrogenase from baker's yeast, type XV (Sigma-Aldrich, USA; Cat […]
D-Glucose-6-phosphate sodium salt (Sigma-Aldrich, USA; Cat #G7879-1G)
NADPH tetrasodium salt (BLD Pharmatech Ltd., Cat #BD116582)
Verapamil hydrochloride (Sigma Aldrich, USA; Cat #V4629)
Niclosamide (Sigma-Aldrich, USA; Cat #N3510)
DMSO stock solutions of the tested compounds 20 mM
Gradient HPLC system (Shimadzu)
Triple quadrupole mass-detector API 3000 with TurboIonSpray Ion Source (AB Sciex, Canada) […]
Multichannel pipettors 1-30 µL, 2-125 µL, 30-850 µL (Thermo Scientific) […]
All measurements were performed using the Shimadzu HPLC system including vacuum degasser, gradient pumps, reverse phase HPLC column, column oven, and autosampler. Mass spectrometric analysis was performed using an API 3000 mass spectrometer from Applied Biosystems/MDS Sciex (AB Sciex) with Turbo V ion source and TurboIonspray interface. The […]
and system control were performed using Analyst 1.6.3 software from AB Sciex.
Microsomal incubations were carried out in 96-well plates in 5 aliquots of 30 μL each (one for each time point). Liver microsomal incubation medium comprised of phosphate buffer (100 mM, pH 7.4), MgCl2 (3.3 mM), NADPН (3 mM), glucose-6-phosphate (5.3 mM), glucose-6-phosphate dehydrogenase (0.67 units/mL) with 0.42 mg of liver microsomal protein per mL. In the control reactions, the NADPH-cofactor system was substituted with phosphate buffer. Test compounds […]
100 rpm. Five-time points over 40 minutes were analyzed. The reactions were stopped by adding 5 volumes of acetonitrile with internal standard to incubation aliquots, followed by protein sedimentation by centrifuging at 5500 rpm for 5 min. Each reaction was performed in duplicates.
Supernatants were analyzed using the HPLC system coupled with a tandem mass spectrometer.
The elimination constant (kel), half-life (t1/2), and intrinsic clearance (Clint) were determined in a plot of […] versus time, using linear regression analysis:1
1 In order to indicate the quality of the linear regression analysis, the R2 (determination coefficient) values are provided.
In some cases, the last time point is excluded from the calculations to ensure acceptable logarithmic linearity of decay.

[3] = tested on: Hedgehog signaling pathway; details: Mus musculus
[4] = in vitro; details: human; for Papp A→B at 90 min, 10 µM: Caco-2, pH 7.4, Papp (AB); for Papp B→A at 90 min, 10 µM: Caco-2, pH 7.4, Papp (BA)
[5] = physchem
[6] = Kinetic solubility in phosphate-buffered saline, pH 7.4; assay type: physicochemical; details: 25 °C, pH 7.4, aqueous buffer, kinetic from dmso stock; for solubility at 2 h: PBS solubility
Protocol: page 239: 7. […] The data […] analysis software. […] page 240: Methods Kinetic solubility assay was performed according to Enamine's aqueous solubility SOP. Briefly, […] theoretical concentration of 400 μM in duplicates in phosphate-buffered saline pH 7.4 […] The experimental compound dilutions in PBS were further allowed to equilibrate at 25 °C on a thermostatic shaker for two hours and then filtered through HTS filter plates using a vacuum manifold. The filtrates of test […] prepared to theoretical concentrations of 0 μM (blank), 10 μM, 25 μM, 50 μM, 100 μM, and 200 […] Ondansetron was used as a reference compound to control proper assay performance. 200 μL of each sample was transferred to a 96-well plate and measured in the 230-550 nm range with a 5 nm step. The concentrations of compounds in PBS filtrate are calculated using a dedicated Microsoft Excel calculation script. Proper absorbance wavelengths for calculations are selected for each compound manually based on absorbance maximums (absolute absorbance unit values for the minimum and maximum concentration points within the 0 - 3 OD range). Each final dataset is visually evaluated by the operator, and goodness of fit (R2) is calculated for each calibration curve. […] close to the upper limit of the range may have higher actual solubility (e.g. 5'-deoxy-5- fluorouridine). The calibration curves are shown in Appendix*. […] Compound ID PBS solubility, pH 7.4, μM SE […] Ondansetron 128 126 127** 1.1 EN300-7362818 6 6 6 0.2 (Sonidegib) BCHep-Sonidegib (50) 5 3 4 0.9 Table S3. 2nd batch PBS solubility, pH 7.4, μM Compound ID SE […] Ondansetron 124 124 124** 0.1 EN300-45381956 (51) 34 34 34 0.2 *Goodness of fit (R2) in all titration curves as well as the variations between repeat measurements indicates a high quality of the experimental data in the current batch of test articles. **Ondansetron solubility data are consistent with those previously obtained. […]

Question: With `CC1CN(c2ccc(NC(=O)C34COCC(c5ccc(OC(F)(F)F)cc5)(C3)C4)cn2)CC(C)O1` (stereo not shown) [Compound 51] as the compound, how does the D ([1]; incubation 1) read?
Answer: 7.16E+04

Question: And the D ([1]; incubation 2)?
Answer: 6.24E+04

Question: What about the D ([1]; incubation 3) of the same compound?
Answer: 6.33E+04

Question: What about the remaining at 40 min, 2 µM ([2]; human liver microsomes, pH 7.4, Table S7, 2nd batch, no NADPH, read-out: % Remaining without cofactor, Mean of 2) of the same compound?
Answer: 104%

Question: What about the half-life at 2 μM ([2]; human liver microsomes, pH 7.4, human liver microsomes, read-out: t1/2: experimental half-time of a metabolic decomposition) of the same compound?
Answer: 1.02 h

Question: And the k el at 2 µM ([2]; human liver microsomes, pH 7.4, Table S7, 2nd batch)?
Answer: 0.000183 s⁻¹

Question: What about the half-life at 2 μM ([2]; human liver microsomes, pH 7.4, Table S7, 2nd batch, read-out: t1/2) of the same compound?
Answer: 1.01 h

Question: What about the microsomal CLint at 2 μM ([2]; human liver microsomes, pH 7.4, read-out: CLint: experimental metabolic stability in human liver microsomes) of the same compound?
Answer: 28 µL/min/mg

Question: What about the remaining at 7 min, 2 µM ([2]; liver microsomes, pH 7.4, Table S7, 2nd batch, 7 min, 2 µM) of the same compound?
Answer: 96%

Question: And the remaining at […], 2 µM ([2]; liver microsomes, pH 7.4, Table S7, 2nd batch, 15 min, 2 µM)?
Answer: 89%

Question: What about the remaining at 25 min, 2 µM ([2]; liver microsomes, pH 7.4, Table S7, 2nd batch, 25 min, 2 µM) of the same compound?
Answer: 77%

Question: What about the remaining at 40 min, 2 µM ([2]; liver microsomes, pH 7.4, Table S7, 2nd batch, 2 µM, read-out: % Remaining, Mean of 2) of the same compound?
Answer: 64%

Question: And the IC50 ([3]; NIH3T3, read-out: IC50 (HH signal): inhibition of the Hedgehog signaling pathway, Gli reporter NIH3T3 cell line)?
Answer: 96 nM

Question: What about the IC50 ([3]; NIH3T3, read-out: pIC50, Hedgehog signaling pathway, experiment with EN300-45381956 (51) (converted), calculated from IC50) of the same compound?
Answer: 100 nM

Question: What about the efflux ratio at 90 min, 10 µM ([4]; Caco-2, pH 7.4) of the same compound?
Answer: 1.5

Question: What about the Papp A→B at 90 min, 10 µM ([4]; Mean) of the same compound?
Answer: 5.4 ×10⁻⁶ cm/s

Question: What about the Papp A→B at 90 min, 10 µM ([4]; replicate 1) of the same compound?
Answer: 6.3 ×10⁻⁶ cm/s

Question: And the Papp A→B at 90 min, 10 µM ([4]; replicate 2)?
Answer: 4.5 ×10⁻⁶ cm/s

Question: What about the Papp B→A at 90 min, 10 µM ([4]; Mean) of the same compound?
Answer: 8 ×10⁻⁶ cm/s

Question: And the Papp B→A at 90 min, 10 µM ([4]; replicate 1)?
Answer: 7.3 ×10⁻⁶ cm/s

Question: What about the Papp B→A at 90 min, 10 µM ([4]; replicate 2) of the same compound?
Answer: 8.7 ×10⁻⁶ cm/s

Question: What about the recovery at 90 min, 10 µM ([4]; Caco-2, pH 7.4, Recovery A-B in presence of Verapamil, Mean) of the same compound?
Answer: 51%

Question: What about the recovery at 90 min, 10 µM ([4]; Caco-2, pH 7.4, Recovery A-B in presence of Verapamil, replicate 1) of the same compound?
Answer: 53%

Question: And the recovery at 90 min, 10 µM ([4]; Caco-2, pH 7.4, Recovery A-B in presence of Verapamil, replicate 2)?
Answer: 49%

Question: And the recovery at 90 min, 10 µM ([4]; Caco-2, pH 7.4, Recovery A-B, Mean)?
Answer: 43%

Question: What about the recovery at 90 min, 10 µM ([4]; Caco-2, pH 7.4, Recovery A-B, replicate 1) of the same compound?
Answer: 44%

Question: And the recovery at 90 min, 10 µM ([4]; Caco-2, pH 7.4, Recovery A-B, replicate 2)?
Answer: 43%

Question: What about the recovery at 90 min, 10 µM ([4]; Caco-2, pH 7.4, Recovery B-A in presence of Verapamil, Mean) of the same compound?
Answer: 77%

Question: What about the recovery at 90 min, 10 µM ([4]; Caco-2, pH 7.4, Recovery B-A in presence of Verapamil, replicate 1) of the same compound?
Answer: 69%

Question: What about the recovery at 90 min, 10 µM ([4]; Caco-2, pH 7.4, Recovery B-A in presence of Verapamil, replicate 2) of the same compound?
Answer: 86%

Question: And the recovery at 90 min, 10 µM ([4]; Caco-2, pH 7.4, Recovery B-A, Mean)?
Answer: 70%

Question: What about the recovery at 90 min, 10 µM ([4]; Caco-2, pH 7.4, Recovery B-A, replicate 1) of the same compound?
Answer: 71%

Question: And the recovery at 90 min, 10 µM ([4]; Caco-2, pH 7.4, Recovery B-A, replicate 2)?
Answer: 69%

Question: And the logD at 1 h ([5]; pH 7.4, LogD, pH 7.4)?
Answer: ≥ 4.5

Question: What about the logD at 1 h ([5]; pH 7.4, LogD, pH 7.4 (overall of 3 incubations)) of the same compound?
Answer: ≥ 4.5

Question: What about the logD at 1 h ([5]; pH 7.4, logD (7.4): experimental distribution coefficient in n-octanol/phosphate-buffered saline, pH 7.4) of the same compound?
Answer: ≥ 4

Question: What about the solubility kinetic at 2 h [6] of the same compound?
Answer: 34 µM (≈ 16.7 µg/mL)

Question: What about the solubility at 2 h ([6]; pH 7.4, Incubation 1) of the same compound?
Answer: 34 µM (≈ 16.7 µg/mL)

Question: And the solubility at 2 h ([6]; pH 7.4, Incubation 2)?
Answer: 34 µM (≈ 16.7 µg/mL)

Question: And the solubility at 2 h ([6]; pH 7.4, Mean)?
Answer: 34 µM (≈ 16.7 µg/mL)
